Measured values from patent publication US20230295201A1 (Gilead Sciences, Inc., priority 2020, published 2023).
Where two headings read alike, the source gives them in different places.

Columns and labels:
Assay type in all cases: cell-based
RSV strain A2 = assay: RSV HEp-2 EC50 (infectious cytopathic cell protection assay); conditions: HEp-2 cells, RSV A2, 4 days, read-out: RSV HEp-2 EC50
Experimental: Antiviral activity against RSV is determined using an infectious cytopathic cell protection assay in HEp-2 cells. In this assay, compounds inhibiting viral infection and/or replication produce a cytoprotective effect against the virus-induced cell killing that can be quantified using a cell viability reagent. The techniques used here are novel adaptations of methods described in published literature (Chapman et al., Antimicrob Agents Chemother. 2007, 51(9):3346-53.)
HEp-2 cells are obtained from ATCC (Manassas, VI) and maintained in MEM media supplemented with 10% fetal bovine serum and penicillin/streptomycin. Cells are passaged twice a week and kept at subconfluent stage. Commercial stock of RSV strain A2 (Advanced Biotechnologies, Columbia, MD) is titered before compound testing to determine the appropriate dilution of the virus stock that generates desirable cytopathic effect in HEp-2 cells.
For antiviral tests, HEp-2 cells are grown in large cell culture flasks to near confluency but not fully so. The compounds to be tested are prediluted in DMSO in 384-well compound dilution plates, either in an 8 or 40 sample per plate standardized dose response format. 3-fold serial dilution increments of each test compound are prepared in the plates and test samples are transferred via acoustic transfer apparatus (Echo, Labcyte) at 100 nL per well into cell culture assay 384-well plates. Each compound dilution is transferred in single or quadruplicate samples into dry assay plates, which are stored until assay is ready to go. The positive and negative controls are laid out in opposite on ends of the plate in vertical blocks (1 column).
Subsequently, an infectious mixture is prepared using an appropriate dilution of virus stock previously determined by titration with cells at a density of 50,000/ml and 20 µL/well is added to test plates w/compounds via automation (uFlow, Biotek). Each plate includes negative and positive controls (16 replicates each) to create 0% and 100% virus inhibition standards, respectively. Following the infection with RSV, testing plates are incubated for 4 days in a 37° C. cell culture incubator. After the incubation, a cell viability reagent, Cell TiterGlo (Promega, Madison, WI) is added to the assay plates, which are incubated briefly, and a luminescent readout is measured (Envision, Perkin Elmer) in all the assay plates. The RSV-induced cytopathic effect, percentage inhibition, is determined from the levels of remaining cell viability. […] Various potent anti-RSV tool compounds are used as positive controls for antiviral activity.

RSV A2 = assay: RSV NHBE EC50 (RSV A2 antiviral assay in normal human bronchial epithelial cells); conditions: NHBE cells, RSV A2, 4 days, read-out: RSV NHBE EC50
Experimental: Normal human bronchial epithelial (NHBE) cells were purchased from Lonza (Walkersville, MD, Cat #CC-2540) and cultured in Bronchial Epithelial Growth Media (BEGM) (Lonza, Walkersville, MD, Cat #CC-3170). The cells were passaged 1-2 times per week to maintain <80% confluency. The NHBE cells were discarded after 6 passages in culture.
To conduct the RSV A2 antiviral assay, NHBE cells were plated in 96-well plates at a density of 7,500 cells per well in BEGM and allowed to attach overnight at 37° C. Following attachment, 100 μL of cell culture media was removed and 3-fold serially diluted compound was added using a Hewlett-Packard D300 Digital Dispenser. The final concentration of DMSO was normalized to 0.05%. Following compound addition, the NHBE cells were infected by the addition of 100 μL of RSV A2 at a titer of 1×10^4.5 tissue culture infectious doses/mL in BEGM and then incubated at 37° C. for 4 days. […] The mixtures were incubated for 10 minutes at 25° C., and the luminescence signal was quantified on an Envision luminescence plate reader.

HRV16 = HRV16 HELA EC50 (cytopathic effect in H1-HeLa cells)
Experimental: H1-HeLa cells, cultured in complete DMEM medium containing 10% heat-inactivated FBS and 1% Penicillin/Streptomycin, were seeded in 96 well plates at 3000 cells/well one day prior to compound dosing and infection. The antiviral activity of each compound was measured in triplicate. Compounds were added directly to the cell cultures in serial 3-fold dilutions using the HP300 digital dispenser (Hewlett Packard, Palo Alto, CA) immediately prior to infection. The plates were transferred to BSL-2 containment and the appropriate dilution of virus stock, previously determined by titration and prepared in cell culture media, was added to test plates containing cells and serially diluted compounds. Each plate included 6 wells of infected untreated cells and 6 wells of uninfected cells that served as 0% and 100% virus inhibition control, respectively. Following the infection, test plates were incubated for 96 h in a tissue culture incubator set to 33° C./5% CO2. Following incubation, the H1-HeLa cells were removed from incubation and allowed to equilibrate to 25° C. Cell viability was determined by removing 100 μL of culture medium and adding 100 μL of Cell-Titer Glo viability reagent. The mixtures were incubated on a shaker for 10 minutes at 25° C., and the luminescence signal was quantified on an Envision luminescence plate reader.

DENV2 replicon = assay: DENV-2 Huh-7 Rep EC50 (replicon luminescence); conditions: Dengue virus, DENV2, Huh-7, 48 h, Huh-7 replicon cells, 48 hours; read-out: DENV-2 Huh-7 Rep EC50
Experimental: In 384 well plates (Greiner, Cat #781091), compounds were acoustically transferred at 200 nl per well in a 8 compound (4 replicates) or 40 compound dose response format (3 replicates). For all plates tested, Balapiravir, GS-5734 and NITD008 were included as positive inhibition controls alongside 0% inhibition, DMSO-only negative control wells. Following compound addition, Huh-7 cells containing the DENV2 replicon construct were harvested following standard cell culture procedures and were adjusted to a concentration of 1.25E5 cells/mL in cell culture media composed of cDMEM without genticin. 40 μL of the cell stock was then added to each well for a final cell density of 5,000 cells/well. Cell and compound mixtures were incubated at 37° C./5% CO2 for 48 hours. Prior to harvesting cells, EnduRen Live Cell Substrate (Promega, Cat #E6481) was prepared by suspending 3.4 mg into 100 uL of DMSO to generate a 60 mM stock solution. The stock solution was then diluted 1:200 in pre-warmed cDMEM and 10 uL of this diluted solution was added to each well of the 384 well plates. Plates were then centrifuged at 500 rpm briefly and were placed on a plate shaker for 2 min. Following mixing, plates were incubated at […] for 1.5 hours prior to measuring luminescence on an Envision luminometer.

[1] = human respiratory syncytial virus, HEp-2, 96 h
[2] = human respiratory syncytial virus, NHBE, 96 h
[3] = 96 h, H1-HeLa cells, 33° C., read-out: HRV16 HELA EC50
[4] = H1-HeLa cells, 96 h, 33° C.; read-out: HRV16 HELA EC50
[5] = human respiratory syncytial virus, 96 h

In the case of `C[C@H](NP(=O)(OC[C@@]1(C#N)O[C@@H](c2ccc3c(N)ncnn23)[C@H](O)[C@@H]1O)Oc1ccccc1)C(=O)OC[C@H]1CC[C@H](C(F)(F)F)CC1` (mixture of isomers) [Example 26, ((1r,4S)-4-(trifluoromethyl)cyclohexyl)methyl ((((2R,3S,4R,5S)-5-(4-aminopyrrolo[2,1-f][1,2,4]triazin-7-yl)-2-cyano-3,4-dihydroxytetrahydrofuran-2-yl)methoxy)(phenoxy)phosphoryl)alaninate], the EC50 (RSV strain A2; [1]) is reported as 0.334 µM, the EC50 (RSV A2; [2]) is reported as 0.025 µM and the EC50 (HRV16; [3]) is reported as 0.669 µM. The EC50 (DENV2 replicon) was 44.3 µM.

In the case of `CCOC(=O)[C@H](CCCCNC(C)=O)NP(=O)(OC[C@@]1(C#N)O[C@@H](c2ccc3c(N)ncnn23)[C@H](O)[C@@H]1O)Oc1ccccc1` (mixture of isomers) [Example 85, (2S)-ethyl 6-acetamido-2-(((((2R,3S,4R,5S)-5-(4-aminopyrrolo[2,1-f][1,2,4]triazin-7-yl)-2-cyano-3,4-dihydroxytetrahydrofuran-2-yl)methoxy)(phenoxy)phosphoryl)amino)hexanoate], the EC50 (RSV strain A2; [1]) is reported as greater than 46.7 µM, the EC50 (RSV A2; [2]) is reported as greater than 5 µM and the EC50 (HRV16; [3]) is reported as greater than 50 µM. The EC50 (DENV2 replicon) was greater than 50 µM.

Work on `CCC(CC)COC(=O)[C@H](CCCCN)NP(=O)(OC[C@@]1(C#N)O[C@@H](c2ccc3c(N)ncnn23)[C@H](O)[C@@H]1O)Oc1ccccc1` (mixture of isomers) [Example 91, (2S)-2-ethylbutyl 6-amino-2-(((((2R,3S,4R,5S)-5-(4-aminopyrrolo[2,1-f][1,2,4]triazin-7-yl)-2-cyano-3,4-dihydroxytetrahydrofuran-2-yl)methoxy)(phenoxy)phosphoryl)amino)hexanoate] yielded an EC50 (RSV strain A2; [1]) of 12.1 µM, an EC50 (RSV A2; [2]) greater than 5 µM and an EC50 (HRV16; [3]) greater than 50 µM. It also gave an EC50 (DENV2 replicon) greater than 50 µM.

`CC(C)OC(=O)C1(NP(=O)(OC[C@@]2(C#N)O[C@@H](c3ccc4c(N)ncnn34)[C@H](O)[C@@H]2O)Oc2ccccc2)CCC1` (mixture of isomers) [Example 95, isopropyl 1-(((((2R,3S,4R,5S)-5-(4-aminopyrrolo[2,1-f][1,2,4]triazin-7-yl)-2-cyano-3,4-dihydroxytetrahydrofuran-2-yl)methoxy)(phenoxy)phosphoryl)amino)cyclobutanecarboxylate] showed an EC50 (RSV strain A2; [1]) of 15.2 µM, an EC50 (RSV A2; [2]) greater than 5 µM and an EC50 (HRV16; [3]) greater than 42.2 µM. It also gave an EC50 (DENV2 replicon) greater than 50 µM.

For `CCOC(=O)C1(NP(=O)(OC[C@@]2(C#N)O[C@@H](c3ccc4c(N)ncnn34)[C@H](O)[C@@H]2O)Oc2ccccc2)CC1` (mixture of isomers) [Example 106, ethyl 1-(((((2R,3S,4R,5S)-5-(4-aminopyrrolo[2,1-f][1,2,4]triazin-7-yl)-2-cyano-3,4-dihydroxytetrahydrofuran-2-yl)methoxy)(phenoxy)phosphoryl)amino)cyclopropanecarboxylate], the EC50 (RSV strain A2; [1]) was greater than 42.5 µM, the EC50 (RSV A2; [2]) was greater than 5 µM and the EC50 (HRV16; [3]) was greater than 100 µM. For the same compound, the EC50 (DENV2 replicon) was greater than 100 µM.

In the case of `N#C[C@]1(COP(=O)(NCC(=O)OC2CCCC2)Oc2ccccc2)O[C@@H](c2ccc3c(N)ncnn23)[C@H](O)[C@@H]1O` (mixture of isomers) [Example 112, cyclopentyl 2-(((((2R,3S,4R,5S)-5-(4-aminopyrrolo[2,1-f][1,2,4]triazin-7-yl)-2-cyano-3,4-dihydroxytetrahydrofuran-2-yl)methoxy)(phenoxy)phosphoryl)amino)acetate], the EC50 (RSV strain A2; [1]) is reported as 1.41 µM, the EC50 (RSV A2; [2]) is reported as 0.464 µM and the EC50 (HRV16; [3]) is reported as 3.69 µM. It also gave an EC50 (DENV2 replicon) greater than 50 µM.

`COC(=O)[C@H](C)NP(=O)(OC[C@@]1(C#N)O[C@@H](c2ccc3c(N)ncnn23)[C@H](O)[C@@H]1O)Oc1ccc(C[C@H](N)C(=O)OC)cc1` (single isomer, unassigned) [Example 62] gave an EC50 (RSV strain A2) of 4.53 µM, an EC50 (RSV A2) greater than 5 µM and an EC50 (HRV16; [4]) of 8.57 µM.

Compound `C[C@@H](NP(=O)(OC[C@@]1(C#N)O[C@@H](c2ccc3c(N)ncnn23)[C@H](O)[C@@H]1O)Oc1ccccc1)C(=O)O[C@H]1CC[C@H](C(F)(F)F)CC1` (single isomer, unassigned) [Example 196] has an EC50 (RSV strain A2) of 4.13 µM, an EC50 (RSV A2) of 1.32 µM and an EC50 (HRV16; [4]) of 7.54 µM.

With `CSCCOP(=O)(N[C@@H](C)C(=O)OC(C)C)OC[C@@]1(C#N)O[C@@H](c2ccc3c(N)ncnn23)[C@H](O)[C@@H]1O` (stereo partly drawn) [Example 40, isopropyl ((((2R,3S,4R,5S)-5-(4-aminopyrrolo[2,1-f][1,2,4]triazin-7-yl)-2-cyano-3,4-dihydroxytetrahydrofuran-2-yl)methoxy)(2-(methylthio)ethoxy)phosphoryl)-L-alaninate] the EC50 (RSV strain A2; [5]) was 21.5 µM, the EC50 (RSV A2; [5]) was no less than 5 µM and the EC50 (HRV16; [4]) was greater than 50 µM.

Work on `C[C@H](NP(=O)(OC[C@@]1(C#N)O[C@@H](c2ccc3c(N)ncnn23)[C@H](O)[C@@H]1O)Oc1ccccc1)C(=O)OC1COC1` (stereo partly drawn) [Example 44, oxetan-3-yl ((((2R,3S,4R,5S)-5-(4-aminopyrrolo[2,1-f][1,2,4]triazin-7-yl)-2-cyano-3,4-dihydroxytetrahydrofuran-2-yl)methoxy)(phenoxy)phosphoryl)-L-alaninate] yielded an EC50 (RSV strain A2; [1]) of 0.998 µM, an EC50 (RSV A2; [2]) of 1.8 µM and an EC50 (HRV16; [3]) of 4.26 µM.

Compound `CCCCCCCCCCCCCCCC(=O)OCC(COP(=O)(O)OC[C@@]1(C#N)O[C@@H](c2ccc3c(N)ncnn23)[C@H](O)[C@@H]1O)OC(=O)CCCCCCCCCCCCCCC` (stereo partly drawn) [Example 152, 3-(((((2R,3S,4R,5S)-5-(4-aminopyrrolo[2,1-f][1,2,4]triazin-7-yl)-2-cyano-3,4-dihydroxytetrahydrofuran-2-yl)methoxy)(hydroxy)phosphoryl)oxy)propane-1,2-diyl dipalmitate] has an EC50 (RSV strain A2; [5]) greater than 5 µM, an EC50 (RSV A2; [5]) of 1.78 µM and an EC50 (HRV16; [4]) greater than 5 µM.
